± gives the expanded uncertainty stated by the source.
Columns and labels:
[1] = Molar enthalpy of transition or fusion; settings: Crystal; DSC
[2] = Crystal; DTA

Question: With `Clc1ccc(C(c2ccccc2Cl)C(Cl)Cl)cc1` (configuration not stated) [1,1-dichloro-2-(2-chlorophenyl)-2-(4-chlorophenyl)ethane] as the compound, how does the “Molar enthalpy of transition or fusion” value [1] read?
Answer: Its value is 6.77 ± 0.201 kcal/mol.

Question: And the Normal melting temperature [2]?
Answer: Its Normal melting temperature is 80.00 ± 0.5 °C.

Source: the NIST ThermoML archive (doi:10.1016/j.jct.2009.08.017)
